For one data set, the system named is embryonated ostrich egg. As to the kind of experiment: Administration in ostrich egg and PET/CT examination (in ovo test). The following applies: in vivo in the incubated egg, approx. 10 MBq in PBS injected intravascularly. On the procedure: The accumulation in the liver of the compounds according to the invention can be examined in a so-called ovo test, i.e. in vivo in an incubated ostrich egg. […] 2. Administration in Ostrich Egg and PET/CT Examination To carry out an intravascular injection in an embryonic egg, it is first necessary to find an […] blood vessel. This is done using a light-intensive […] lamp (Tempo No. 119, Brecker Ltd. & Co. KG, Ruethen, Germany or Powerlux […], Lyon Technologies Inc., Chula Vista, Calif., USA), with which the egg is illuminated through the eggshell in similar manner to a diaphanoscopy. After locating a large-caliber vessel, an approximately 2.5×5 cm rectangular piece is machined from the approximately 2 mm thick egg shell (Dremel® 3000, Dremel Europe-Bosch Powertools B.V., Breda, the Netherlands). Particular care must be taken to maintain the intactness of the inner membrane of the eggshell, which corresponds to the chorioallantoic membrane (CAM). After removing the eggshell lid-again using the […] lamp-the yolk vessel is punctured with a narrow 27G cannula and this is fixed to the eggshell with adhesive strips. The access thus created now allows both CT contrast media and radiopharmaceuticals to be injected via a short length of plastic tubing (Smiths MedicalTM 800/100/100 Smiths, Smiths Medical International Ltd, Ashford, Great Britain). […]

The conditions of data set [1]: physiological conditions; demetalation e.g. by apo-transferrin; cited from earlier work.
Data set [2] in a line: Stability / storability of the ligands as labeling precursors. The format is physicochemical.

On to `CCOc1ccc(CNC2CN(Cc3ccc(OCC)cc3[O-])CCN(Cc3ccc(OCC)cc3[O-])C2)c([O-])c1.[68Ga+3]` [^68Ga-[TEOHB-DAZA], ^68Ga[tris-N,N′,N″(4-ethoxy-2-hydroxybenzyl)-1,4-diazepan-6-amine]], for which, in the data set on embryonated ostrich egg, the “accumulation in the liver” value is “almost exclusive accumulation in the liver”. For `CCc1cccc(CC)c1NC(=O)CN(CC(=O)O)CC(=O)O` [EHIDA], the “stability of the 68Ga complex of the ligand” value in data set [1] is “do not form sufficiently stable ^68Ga complexes”.

`COc1ccc(CNC2CN(Cc3ccc(OC)cc3O)CCN(Cc3ccc(OC)cc3O)C2)c(O)c1` [TMeOHB-DAZA, tris-N,N′,N″(4-methoxy-2-hydroxybenzyl)-1,4-diazepan-6-amine]: in data set [2], the “stability of the ligand (storable as precursor for labeling with 68Ga or 64Cu)” value is “stable”. Turning to `CCOc1ccc(CNC2CN(Cc3ccc(OCC)cc3O)CCN(Cc3ccc(OCC)cc3O)C2)c(O)c1` [TEOHB-DAZA, tris-N,N′,N″(4-ethoxy-2-hydroxybenzyl)-1,4-diazepan-6-amine], in data set [2], the “stability of the ligand (storable as precursor for labeling with 68Ga or 64Cu)” value is “stable”.

Turning to `CCOc1ccc(C[C@@H](CN(CCN(CC(=O)O)CC(=O)O)CC(=O)O)N(CC(=O)O)CC(=O)O)cc1` [EOB-DTPA], the “stability of the 68Ga complex of the ligand” value in data set [1] was “do not form sufficiently stable ^68Ga complexes”.

The values are drawn from patent US11701439B2, “DAZA chelators as ligands in liver imaging” (X-NUCLEAR DIAGNOSTICS GMBH, priority 2017, dated 2023).
